Assay results: ChEMBL document CHEMBL1201862, “PubChem BioAssay data set” (2004)
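Dose response: 5 concentrations. Exposure: 48 h. Format: 96-well plates. Endpoint: linear interpolation; highest concentration if not reached. Abbreviation: GI50, concentration required for 50% inhibition of growth.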 The source made the active and inactive calls. No stated cut-off is given here; in the data, active = GI50 up to about 1.1 µM and inactive = higher.

What was measured:
Experiment in all cases: NCI tumour cell line growth inhibition, 48 h
NCI-H460 = system: NCI-H460
NCI/ADR-RES = system: NCI/ADR-RES
NCI-H23 = system: NCI-H23
HCT-15 = system: HCT-15
ACHN = system: ACHN
RXF 393 = system: RXF 393
MDA-MB-435 = system: MDA-MB-435
SNB-19 = system: SNB-19
SK-MEL-5 = system: SK-MEL-5
A549 = system: A549
UACC-257 = system: UACC-257
HT-29 = system: HT-29
U-251 = system: U-251
A498 = system: A498
TK-10 = system: TK-10
OVCAR-3 = system: OVCAR-3
HOP-62 = system: HOP-62
RPMI-8226 = system: RPMI-8226
BT-549 = system: BT-549
PC-3 = system: PC-3
SF-539 = system: SF-539
SNB-75 = system: SNB-75
NCI-H226 = system: NCI-H226
MCF7 = system: MCF7
MDA-MB-231 = system: MDA-MB-231
SF-295 = system: SF-295
SW-620 = system: SW-620
M14 = system: M14
SK-MEL-2 = system: SK-MEL-2
UACC-62 = system: UACC-62
MDA-N = system: MDA-N
COLO 205 = system: COLO 205
SK-OV-3 = system: SK-OV-3
CAKI-1 = system: CAKI-1
IGROV-1 = system: IGROV-1
SF-268 = system: SF-268
EKVX = system: EKVX
786-0 = system: 786-0
OVCAR-5 = system: OVCAR-5
SN12C = system: SN12C
Malme-3M = system: Malme-3M
T47D = system: T47D
Hs-578T = system: Hs-578T
NCI-H522 = system: NCI-H522
HCT-116 = system: HCT-116
OVCAR-4 = system: OVCAR-4
DU-145 = system: DU-145
KM12 = system: KM12
LOX IMVI = system: LOX IMVI
UO-31 = system: UO-31
SK-MEL-28 = system: SK-MEL-28
OVCAR-8 = system: OVCAR-8
K562 = system: K562
CCRF-CEM = system: CCRF-CEM
HOP-92 = system: HOP-92
HCC 2998 = system: HCC 2998
HL-60 = system: HL-60
MOLT-4 = system: MOLT-4

Compound: Cc1ccc(S(=O)(=O)Nc2ccccc2C(=O)c2ccc(C)c(C)c2)cc1
- GI50 (NCI-H460): 80.2 µM (inactive)
- GI50 (NCI/ADR-RES): > 100 µM (inactive)
- GI50 (NCI-H23): > 100 µM (inactive)
- GI50 (HCT-15): > 100 µM
- GI50 (ACHN): 55.2 µM (inactive)
- GI50 (RXF 393): > 100 µM (inactive)
- GI50 (MDA-MB-435): 41.9 µM (inactive)
- GI50 (SNB-19): > 100 µM (inactive)
- GI50 (SK-MEL-5): 35 µM (inactive)
- GI50 (A549): > 100 µM (inactive)
- GI50 (UACC-257): 53.1 µM (inactive)
- GI50 (HT-29): > 100 µM (inactive)
- GI50 (U-251): 85.1 µM (inactive)
- GI50 (A498): 94.6 µM (inactive)
- GI50 (TK-10): > 100 µM (inactive)
- GI50 (OVCAR-3): 83.9 µM (inactive)
- GI50 (HOP-62): > 100 µM (inactive)
- GI50 (RPMI-8226): 42.9 µM (inactive)
- GI50 (BT-549): > 100 µM (inactive)
- GI50 (PC-3): > 100 µM (inactive)
- GI50 (SF-539): > 100 µM (inactive)
- GI50 (SNB-75): > 100 µM (inactive)
- GI50 (NCI-H226): > 100 µM (inactive)
- GI50 (MCF7): 52.7 µM (inactive)
- GI50 (MDA-MB-231): > 100 µM (inactive)
- GI50 (SF-295): 75 µM (inactive)
- GI50 (SW-620): > 100 µM (inactive)
- GI50 (M14): > 100 µM (inactive)
- GI50 (SK-MEL-2): > 100 µM (inactive)
- GI50 (UACC-62): 88.5 µM (inactive)
- GI50 (MDA-N): 74.3 µM (inactive)
- GI50 (COLO 205): > 100 µM (inactive)
- GI50 (SK-OV-3): > 100 µM (inactive)
- GI50 (CAKI-1): > 100 µM (inactive)
- GI50 (IGROV-1): 34.6 µM (inactive)
- GI50 (SF-268): > 100 µM (inactive)
- GI50 (EKVX): > 100 µM (inactive)
- GI50 (786-0): > 100 µM (inactive)
- GI50 (OVCAR-5): > 100 µM (inactive)
- GI50 (SN12C): > 100 µM (inactive)
- GI50 (Malme-3M): 59 µM (inactive)
- GI50 (T47D): 71.1 µM (inactive)
- GI50 (Hs-578T): 60.5 µM (inactive)
- GI50 (NCI-H522): 39.9 µM (inactive)
- GI50 (HCT-116): > 100 µM (inactive)
- GI50 (OVCAR-4): > 100 µM (inactive)
- GI50 (DU-145): > 100 µM (inactive)
- GI50 (KM12): 63.4 µM (inactive)
- GI50 (LOX IMVI): > 100 µM (inactive)
- GI50 (UO-31): > 100 µM (inactive)
- GI50 (SK-MEL-28): > 100 µM (inactive)
- GI50 (OVCAR-8): > 100 µM (inactive)

Compound: CC[N+]1(C)CCC(O)(/C=C/c2ccc(OC)cc2)C(C(=O)/C=C/c2ccc(OC)cc2)C1 (stereo not given)
- GI50 (K562): 2.06 µM (inactive)
- GI50 (NCI-H460): 9.53 µM (inactive)
- GI50 (NCI/ADR-RES): 27.1 µM (inactive)
- GI50 (NCI-H23): 16.2 µM (inactive)
- GI50 (HCT-15): 9.98 µM
- GI50 (ACHN): 8.36 µM (inactive)
- GI50 (RXF 393): 15.1 µM (inactive)
- GI50 (MDA-MB-435): 12.5 µM (inactive)
- GI50 (SNB-19): 17.3 µM (inactive)
- GI50 (SK-MEL-5): 14.7 µM (inactive)
- GI50 (A549): 23.3 µM (inactive)
- GI50 (UACC-257): 17.4 µM (inactive)
- GI50 (CCRF-CEM): 0.548 µM (active)
- GI50 (HT-29): 13.2 µM (inactive)
- GI50 (U-251): 15.6 µM (inactive)
- GI50 (A498): 16.7 µM (inactive)
- GI50 (TK-10): 2.96 µM (inactive)
- GI50 (HOP-92): 15.5 µM (inactive)
- GI50 (HCC 2998): 20 µM (inactive)
- GI50 (OVCAR-3): 19.7 µM (inactive)
- GI50 (HOP-62): 19.3 µM (inactive)
- GI50 (RPMI-8226): 0.252 µM (active)
- GI50 (BT-549): 20.1 µM (inactive)
- GI50 (PC-3): 20.1 µM (inactive)
- GI50 (SF-539): 5.35 µM (inactive)
- GI50 (SNB-75): 18.9 µM (inactive)
- GI50 (NCI-H226): 28 µM (inactive)
- GI50 (MCF7): 4.29 µM (inactive)
- GI50 (HL-60): 1.52 µM (inactive)
- GI50 (MDA-MB-231): 23.9 µM (inactive)
- GI50 (SF-295): 18.6 µM (inactive)
- GI50 (SW-620): 2.7 µM (inactive)
- GI50 (M14): 10.4 µM (inactive)
- GI50 (SK-MEL-2): 19 µM (inactive)
- GI50 (UACC-62): 17.8 µM (inactive)
- GI50 (MDA-N): 12.3 µM (inactive)
- GI50 (COLO 205): 2.58 µM (inactive)
- GI50 (SK-OV-3): 19.1 µM (inactive)
- GI50 (MOLT-4): 1.94 µM (inactive)
- GI50 (CAKI-1): 1.88 µM (inactive)
- GI50 (IGROV-1): 21.8 µM (inactive)
- GI50 (SF-268): 10.6 µM (inactive)
- GI50 (EKVX): 28.6 µM (inactive)
- GI50 (786-0): 3.13 µM (inactive)
- GI50 (OVCAR-5): 21.2 µM (inactive)
- GI50 (SN12C): 21.3 µM (inactive)
- GI50 (Malme-3M): 14.4 µM (inactive)
- GI50 (T47D): 5.86 µM (inactive)
- GI50 (Hs-578T): 11.7 µM (inactive)
- GI50 (NCI-H522): 2.26 µM (inactive)
- GI50 (HCT-116): 12.7 µM (inactive)
- GI50 (OVCAR-4): 24.7 µM (inactive)
- GI50 (DU-145): 14.2 µM (inactive)
- GI50 (KM12): 4.13 µM (inactive)
- GI50 (LOX IMVI): 2.64 µM (inactive)
- GI50 (UO-31): 12.6 µM (inactive)
- GI50 (SK-MEL-28): 15.3 µM (inactive)
- GI50 (OVCAR-8): 23.3 µM (inactive)
